# In patent publication US20070213305A1, “N-alkyl-N-aryl-thienopyrimidin-4-amines and analogs as activators of caspases and inducers of apoptosis and the use thereof” (Cytovia, Inc., priority 2005, published 2007):
# Counter-ions that a name gives are not always drawn. Like-named read-outs stand apart in the source and are kept apart here.
# Key:
# [1] = test system: human sarcoma cell line MES-SA; assay: Inhibition of cell proliferation (GI50) in MES-SA cells; assay type: cell-based
# Method: (§1) T-47D, HT29, H1299, MX-1 and MDAMB435 cells were grown and harvested as in Example 29. An aliquot of 90 μL of cells (4.4×10^4 cells/mL) was added to a well of a 96-well microtiter plate containing 5 μL of a 10% DMSO in RPMI-1640 media solution containing 10 nM to 100 μM of N-(4-methoxyphenyl)-N,2-dimethylthieno[2,3-d]pyrimidin-4-amine (1 nM to 10 μM final) or related compounds. An aliquot of […] of cells was added to a well of a 96-well microtiter plate containing 5 μL of a 10% DMSO in RPMI-1640 media solution without compound as the control sample for maximal cell proliferation (LMax). The samples were mixed by agitation and then incubated at 37° C. for 48 h in a 5% CO2-95% humidity incubator. After incubation, the samples were removed from the incubator and 25 μL of CellTiter-Glo™ reagent (Promega) was added. The samples were mixed by agitation and incubated at room temperature for 10-15 min. Plates were then read using a luminescent plate reader (Model SPECTRAfluor Plus, Tecan) to give Ltest values.
# (§2) The samples were mixed by agitation and then incubated at 37° C. for 0.5 h in a 5% CO2-95% humidity incubator. After incubation, the samples were removed from the incubator and 25 μL of CellTiter-Glo™ reagent (Promega) was added. The samples were mixed by agitation and incubated at […] room temperature in a 5% CO2-95% humidity incubator. […] was read as above, (Lstart) defining luminescence for initial cell number used as baseline in GI50 determinations. ps Calculation:
# (§3) GI50 (dose for 50% inhibition of cell proliferation) is the concentration where [(LTest-LStart)/(LMax-LStart)]=0.5.
# (§4) Several compounds were tested in other cancer cell lines, including human sarcoma cell line MES-SA and multi-drug resistant (MDR) human sarcoma cell line MES-SA/ADR, murine leukemia cell line P388 and multi-drug resistant (MDR) murine leukemia cell line P388ADR, and the data are summarized in Table IV.
# [2] = test system: multi-drug resistant (MDR) human sarcoma cell line MES-SA/ADR; assay: Inhibition of cell proliferation (GI50) in MES-SA/ADR cells; assay type: cell-based
# Method: as §1, §2, §3, §4
# [3] = test system: murine leukemia cell line P388; assay: Inhibition of cell proliferation (GI50) in P388 cells; assay type: cell-based
# Method: as §1, §2, §3, §4
# [4] = test system: multi-drug resistant (MDR) murine leukemia cell line P388ADR; assay: Inhibition of cell proliferation (GI50) in P388/ADR cells; assay type: cell-based
# Method: as §1, §2, §3, §4
# [5] = test system: human breast cancer cell line T-47D; assay: Caspase cascade activation (DEVD-R110 fluorogenic substrate) in T-47D cells; assay type: cell-based; conditions: 24 h, read-out: Caspase Activation Potency EC50 (nM) (24 h) T-47D
# Method: (§5) Human breast cancer cell line T-47D, human lung cancer cell line H1299 and human hepatocellular carcinoma cell line SNU398 were grown according to media component mixtures designated by American Type Culture Collection+10% FCS (Invitrogen Corporation), in a 5% CO2-95% humidity incubator at 37° C. T-47D and H1299 cells were maintained at a cell density between 50 and 80% confluency at a cell density of 0.1 to 0.6×10^6 cells/mL. Cells were harvested at 600×g and resuspended at 0.65×10^6 cells/mL into appropriate media+10% FCS. An aliquot of 22.5 μL of cells was added to a well of a 384-well microtiter plate containing 2.5 μL of a 10% DMSO in RPMI-1640 media solution containing 0.16 to 100 μM of N-(4-methoxyphenyl)-N, 2-dimethylthieno[3,2-d]pyrimidin-4-amine or other test compound (0.016 to 10 μM final). An aliquot of 22.5 μL of cells was added to a well of a 384-well microtiter plate containing 2.5 μL of a 10 % DMSO in RPMI-1640 media solution without test compound as the control sample. The samples were mixed by agitation and then incubated at 37° C. for 24 h or 48 h in a 5% CO2-95% humidity incubator. After incubation, the samples were removed from the incubator and 25 μL of a solution containing 14 μM of N-(Ac-DEVD)-N′-ethoxycarbonyl-R110 (SEQ ID No.:1) fluorogenic substrate (Cytovia, Inc.; WO99/18856), 20% sucrose (Sigma), 20 mM DTT (Sigma), 200 mM NaCI (Sigma), 40 mM Na PIPES buffer pH 7.2 (Sigma), and 500 μg/mL lysolecithin (Calbiochem) was added. The samples were mixed by agitation and incubated at room temperature. Using a fluorescent plate reader (Model SPECTRAfluor Plus, Tecan), an initial reading (T=0) was made approximately 1-2 min after addition of the substrate solution, employing excitation at 485 nm and emission at 530 nm, to determine the background fluorescence of the control sample. After the 3 h incubation, the samples were read for fluorescence as above (T=3 h).
# (§6) The Relative Fluorescence Unit values (RFU) were used to calculate the sample readings as follows: RFU(T=3h)-Control RFU(T=0)=Net RFU(T=3h)
# (§7) The activity of caspase cascade activation was determined by the ratio of the net RFU value for N-(4-methoxyphenyl)-N,2-dimethylthieno[3,2-d]pyrimidin-4-amine or other test compound to that of control samples. The EC50 (nM) was determined by a sigmoidal dose-response calculation (Prism 3.0, GraphPad Software Inc.).
# [6] = test system: human hepatocellular carcinoma cell line SNU398; assay: Caspase cascade activation (DEVD-R110 fluorogenic substrate) in SNU398 cells; assay type: cell-based
# Method: as §5, §6, §7
# Several compounds were also tested in other cancer cells lines (48 h assay), including human hepatocellular carcinoma cell line SNU398, human colon carcinoma cell line […], human B cell lymphoblastoid cell line Ramos, human Burkitt's lymphoma cell line Namalwa, and cervical cancer cell line HeLa, and the data are summarized in Table II.
# [7] = test system: human lung cancer cell line H1299; assay: Caspase cascade activation (DEVD-R110 fluorogenic substrate) in H1299 cells; assay type: cell-based; conditions: read-out: Caspase Activation Potency EC50 (nM) (24 h) H1299
# Method: as §5, §6, §7
# T-47D cells = assay: Inhibition of cell proliferation (GI50, CellTiter-Glo) in T-47D cells; assay type: cell-based, human; conditions: T47D, 48 h incubation, read-out: GI50 in Cancer Cells GI50 (nM) T47D
# Method: as §1, §2, §3
# HT29 cells = assay: Inhibition of cell proliferation (GI50, CellTiter-Glo) in HT29 cells; assay type: cell-based; conditions: HT29, 48 h incubation, read-out: GI50 in Cancer Cells GI50 (nM) HT29
# Method: as §1, §2, §3
# MX-1 cells = assay: Inhibition of cell proliferation (GI50, CellTiter-Glo) in MX-1 cells; assay type: cell-based; conditions: MX1, 48 h incubation, read-out: GI50 in Cancer Cells GI50 (nM) MX1
# Method: as §1, §2, §3
# MDAMB435 cells = assay: Inhibition of cell proliferation (GI50, CellTiter-Glo) in MDAMB435 cells; assay type: cell-based; conditions: MDAMB435, 48 h incubation, read-out: GI50 in Cancer Cells GI50 (nM) MDAMB435
# Method: as §1, §2, §3
# H1299 cells = assay: Inhibition of cell proliferation (GI50, CellTiter-Glo) in H1299 cells; assay type: cell-based, human; conditions: H1299, 48 h incubation, read-out: GI50 in Cancer Cells GI50 (nM) H1299
# Method: as §1, §2, §3
# [8] = test system: cervical cancer cell line HeLa; assay: Caspase cascade activation in HeLa cells; assay type: cell-based; conditions: Homo sapiens, 48 h, read-out: Caspase Activation Potency EC50 (nM) (48 h) HeLa
# Method: (§8) Human breast cancer cell line T-47D, human lung cancer cell line H1299 and human hepatocellular carcinoma cell line SNU398 were grown according to media component mixtures designated by American Type Culture Collection+10% FCS (Invitrogen Corporation), in a 5% CO2-95% humidity incubator at 37° C. T-47D and H1299 cells were maintained at a cell density between 50 and 80% confluency at a cell density of 0.1 to 0.6×10^6 cells/mL. Cells were harvested at 600×g and resuspended at 0.65×10^6 cells/mL into appropriate media+10% FCS. […] Using a fluorescent plate reader (Model SPECTRAfluor Plus, Tecan), an initial reading (T=0) was made approximately 1-2 min after addition of the substrate solution, employing excitation at 485 nm and emission at 530 nm, to determine the background fluorescence of the control sample. After the 3 h incubation, the samples were read for fluorescence as above (T=3 h).
# as §6
# (§9) The activity of caspase cascade activation was determined by the ratio of the net RFU value for N-(4-methoxyphenyl)-N,2-dimethylthieno[3,2-d]pyrimidin-4-amine or other test compound to that of control samples. The EC50 (nM) was determined by a sigmoidal dose-response calculation (Prism 3.0, GraphPad Software Inc.). […]
# HCT116 = assay: Caspase cascade activation in HCT116 cells; assay type: cell-based; conditions: Homo sapiens, HCT-116; HCT116, 48 h; read-out: Caspase Activation Potency EC50 (nM) (48 h) HCT116
# Method: as §8, §6, §9
# [9] = Homo sapiens, SNU-398, SNU398, 24 h, read-out: Caspase Activation Potency EC50 (nM) (24 h) SNU398
# [10] = SNU398, 24 h, read-out: Caspase Activation Potency EC50 (nM) (24 h) SNU398
smiles,measurement,setting,value
"COc1ccc(N(C)c2nc(C)nc3ccsc23)cc1 [Example 1, N-(4-Methoxyphenyl)-N,2-dimethylthieno[3,2-d]pyrimidin-4-amine]",GI50 in Multi-Cancer Cells EC50 (nM) MES-SA,[1],12 nM
same,GI50 in Multi-Cancer Cells EC50 (nM) MES-SA/ADR,[2],13 nM
same,GI50 in Multi-Cancer Cells EC50 (nM) P388,[3],15 nM
same,GI50 in Multi-Cancer Cells EC50 (nM) P388/ADR,[4],16 nM
same,EC50,"[5]; Homo sapiens, T47D",14 nM
same,EC50,[6]; [9],28 nM
same,EC50,"[7]; Homo sapiens, NCI-H1299, 24 h",24 nM
"COc1ccc(N(C)c2nc(C)nc3sccc23)cc1 [Example 2, N-(4-Methoxyphenyl)-N,2-dimethylthieno[2,3-d]pyrimidin-4-amine]",GI50,T-47D cells; Homo sapiens,5 nM
same,GI50,"HT29 cells; Homo sapiens, HT-29",26 nM
same,GI50,MX-1 cells; Homo sapiens,5 nM
same,GI50,"MDAMB435 cells; Homo sapiens, MDA-MB-435",2 nM
same,EC50,[5],9 nM
same,GI50,"H1299 cells; Homo sapiens, NCI-H1299",9 nM
same,EC50,"[7]; H1299, 24 h",15 nM
"COc1ccc(N(C)c2nc(C)nc3scc(C)c23)cc1 [Example 4, N-(4-Methoxyphenyl)-N,2,5-trimethylthieno[2,3-d]pyrnmidin-4-amine]",GI50,T-47D cells,5 nM
same,GI50,HT29 cells,5 nM
same,GI50,MX-1 cells,5 nM
same,GI50,MDAMB435 cells,5 nM
same,EC50,[5],4 nM
same,GI50,H1299 cells,2 nM
same,EC50,[6]; [10],4 nM
same,EC50,"[7]; H1299, 24 h",9 nM
"COc1ccc(N(C)c2ncnc3ccsc23)cc1 [Example 6, N-(4-Methoxyphenyl)-N-methylthieno[3,2-d]pyrimidin-4-amine]",GI50,T-47D cells; Homo sapiens,4 nM
same,GI50,"HT29 cells; Homo sapiens, HT-29",40 nM
same,GI50,MX-1 cells; Homo sapiens,40 nM
same,GI50,"MDAMB435 cells; Homo sapiens, MDA-MB-435",16 nM
same,GI50 in Multi-Cancer Cells EC50 (nM) MES-SA,[1],58 nM
same,GI50 in Multi-Cancer Cells EC50 (nM) MES-SA/ADR,[2],100 nM
same,GI50 in Multi-Cancer Cells EC50 (nM) P388,[3],74 nM
same,GI50 in Multi-Cancer Cells EC50 (nM) P388/ADR,[4],105 nM
same,EC50,"[5]; Homo sapiens, T47D",45 nM
same,GI50,"H1299 cells; Homo sapiens, NCI-H1299",38 nM
same,EC50,[6]; [9],123 nM
same,EC50,"[7]; Homo sapiens, NCI-H1299, 24 h",56 nM
"COc1ccc(N(C)c2ncnc3sccc23)cc1 [Example 9, N-(4-Methoxyphenyl)-N-methylthieno[2,3-d]pynimidin-4-amine]",EC50,[5],19 nM
same,EC50,[6]; [10],57 nM
same,EC50,"[7]; H1299, 24 h",41 nM
"COc1ccc(N(C)c2ncnc3scc(C)c23)cc1 [Example 12, N-(4-Methoxyphenyl)-N,5-dimethylthieno[2,3-d]pyrimidin-4-amine]",EC50,"[5]; Homo sapiens, T47D",12 nM
same,EC50,[6]; [9],15 nM
same,EC50,"[7]; Homo sapiens, NCI-H1299, 24 h",19 nM
"COc1ccc(N(C)c2nc(SC)nc3ccsc23)cc1 [Example 20, N-(4-Methoxyphenyl)-N-methyl-2-(methylthio)thieno[3,2-d]pyrimidin-4-amine hydrochloride]",EC50,"[5]; Homo sapiens, T47D",36 nM
same,EC50,[6]; [9],81 nM
same,EC50,"[7]; Homo sapiens, NCI-H1299, 24 h",28 nM
"COc1ccc(N(C)c2ncnc3sc(C)c(C)c23)cc1 [Example 23, N-(4-Methoxyphenyl)-N,5,6-trimethylthieno[2,3-d]pyrimidin-4-amine]",EC50,"[5]; Homo sapiens, T47D",19 nM
same,EC50,[6]; [9],30 nM
same,EC50,"[7]; Homo sapiens, NCI-H1299, 24 h",51 nM
"COc1ccc(N(C)c2nc(C)nc3sc(C)c(C)c23)cc1 [Example 24, N-(4-Methoxyphenyl)-N,2,5,6-tetramethylthieno[2,3-d]pyrimidin-4-amine]",EC50,[8],30 nM
same,EC50,"[5]; Homo sapiens, T47D",17 nM
same,EC50,[6]; [9],27 nM
same,EC50,"[6]; Homo sapiens, SNU-398, SNU398, 48 h, read-out: Caspase Activation Potency EC50 (nM) (48 h) SNU398",16 nM
same,EC50,"[7]; Homo sapiens, NCI-H1299, 24 h",59 nM
same,EC50,HCT116,15 nM
"COc1cc(OC)cc(N(C)c2ncnc3ccsc23)c1 [Example 28, N-(3,5-dimethoxyphenyl)-N-methylthieno[3,2-d]pyrimidin-4-amine]",EC50,"[5]; Homo sapiens, T47D",> 10000 nM
same,EC50,"[7]; Homo sapiens, NCI-H1299, 24 h",> 10000 nM
